Data as given in ChEMBL document CHEMBL3507680, “University of Dundee, Gates Library screen for HepG2 cell viability”.

Assay: Human HepG2 cell viability assay in 384 well format
Assay type: toxicity, cell-based
Set-up: dose 125 nL, time 70.5 hour; concentration not given beside the values
Conditions: HepG2 cells, read-out: Inhibition

SMILES | cytotoxicity at 70.5 h
CCN1CC2(CCN(C(=O)N(C)C)CC2)COc2ccccc2S1(=O)=O | 4.83%
Cc1cc(C(=O)N2CCc3ncnc(-c4cnn(C)c4)c3CC2)c(C)o1 | -7.85%
COCC1CN(CC2CC2)Cc2ncn(CC3CC3)c21 (centres undefined) | 2.41%
Cc1noc(C2CCC3(CCN(C(=O)c4ncccn4)CC3)O2)n1 (centres undefined) | 2.54%
O=C1CCCN1Cc1ncn2c1CN(C(=O)C1CC=CC1)CCC2 | -5.43%
O=C(NCC1CCOCC1)[C@@H]1C[C@@H]2[C@@H](CCN2Cc2ccoc2)O1 | 0.123%
Cc1noc(C2CCC3(CCN(C(=O)c4ccncn4)CC3)O2)n1 (centres undefined) | 3.42%
CN(C)C(=O)c1cc2c(nc1NCC1CC1)CCN(CC1CC1)CC2 | 5.16%
O=C(NCC1CC1)[C@H]1CC[C@@H]2[C@@H](CCN2Cc2nccs2)O1 | 1.44%
CCn1ncc2c1C(COC)CN(Cc1ccc(C)o1)C2 (centres undefined) | 2.21%
CN(C)CCN1CCN(CC2CC2)c2ncccc2C1 | -3.26%
Cc1nccc([C@H]2C[C@@H]3CCN(S(C)(=O)=O)C[C@H]3O2)n1 | -0.795%
CCOC[C@@H]1CC[C@H]2[C@H](CCN2C(=O)c2ccncc2F)O1 | -1.37%
CNC(=O)N1CCC2(CC1)CC[C@@]1(C(=O)NC)CN(S(C)(=O)=O)C[C@@H]21 | -0.00397%
Cc1nccc([C@@H]2C[C@@H]3CCN(S(=O)(=O)N(C)C)C[C@H]3O2)n1 | 1.05%
Cc1ccc(S(=O)(=O)N2CCCC3(CCCN3S(C)(=O)=O)C2)cc1F (centres undefined) | 0.261%
CNC(=O)[C@@]12CCC3(CCN(S(C)(=O)=O)CC3)[C@@H]1CN(C(C)=O)C2 | -0.353%
CNC(=O)[C@@]12CCC3(CCN(S(=O)(=O)C4CC4)CC3)[C@@H]1CN(C(C)=O)C2 | 20.2%
COCc1ncn2c1CN(C(=O)c1ccc[nH]1)CC2 | -4.65%
CNC(=O)[C@@]12CCC3(CCN(C(=O)C(C)C)CC3)[C@@H]1CN(S(C)(=O)=O)C2 | 2.4%
Cc1nccc([C@@H]2C[C@H]3CN(S(=O)(=O)c4ccccc4)C[C@H]3O2)n1 | -2.27%
CC(C)CC(=O)N1CCCC2(CC(C(=O)Nc3ccccc3)=NO2)C1 (centres undefined) | -0.967%

SMILES | cytotoxicity at 70.5 h
O=C(Nc1ccccc1)C1=NOC2(CCCN(C(=O)C3CCCC3)C2)C1 (centres undefined) | -1.79%
CC(C)(C)CC(=O)N1CCCC2(CC(C(=O)Nc3ccccc3)=NO2)C1 (centres undefined) | -8.03%
O=C(C1CCOCC1)N1C[C@H](OCc2cccnc2)[C@H]2COC[C@H]21 | -5.49%
O=C(c1cscn1)N1C[C@H](OCc2cccnc2)[C@H]2COC[C@H]21 | -5.24%
Cc1ccc(C(=O)N2C[C@H](OCc3cccnc3)[C@H]3COC[C@H]32)cn1 | -2.21%
COc1ncccc1C(=O)Nc1nc2c(s1)CN(S(=O)(=O)C1CC1)CC2 | 3.95%
CS(=O)(=O)N1CCc2nc(NC(=O)Nc3c(F)cccc3F)sc2C1 | 0.946%
Cc1ccc(S(=O)(=O)NC2CNC(=O)C2)cc1C (centres undefined) | 0.672%
COc1cccc(S(=O)(=O)NC2CNC(=O)C2)c1 (centres undefined) | 1.68%
O=C(c1cnn2c1OCCC2)N1CCC2(CC1)OCCO2 | -1.08%
COc1ccc(C)cc1NC(=O)Nc1cnc(N2CCN(C)CC2)nc1 | 16.2%
Cn1c(C(F)(F)F)nn(CCNC(=O)NCc2ccccc2)c1=O | 16.5%
Cc1noc(-c2ccc(N3CCCC(C(=O)N4CCSCC4)C3)nc2)n1 (centres undefined) | 3.88%
O=C1CCSCC(C(=O)N2CCCC2)N1 (centres undefined) | -2.31%
O=C1CCSCC(C(=O)N2CCN(C3CCCCC3)CC2)N1 (centres undefined) | 0.692%
CN(C)S(=O)(=O)N1CCC(Oc2ccccn2)CC1 | 3.95%
CCOCC(=O)N1CCC(Oc2ccc(C(F)(F)F)cn2)CC1 | -4.36%
CCOCC(=O)N1CCC(Oc2ccc(Cl)cn2)CC1 | -4.45%
COc1ccccc1S(=O)(=O)N1CCC(Oc2cccnn2)CC1 | 3.7%
O=C(c1ccc(F)c(F)c1)N1CCCSCC1CN1CCCC1 (centres undefined) | -0.49%
Cc1cnc2n(c1=O)CC(C(=O)NC1CC1)CS2 (centres undefined) | 2.18%
Cc1cnc2n(c1=O)CC(C(=O)Nc1cccc3cccnc13)CS2 (centres undefined) | -5.53%

SMILES | cytotoxicity at 70.5 h
CCc1c(C)nc2n(c1=O)CC(C(=O)Nc1nccs1)CS2 (centres undefined) | 33.6%
COC(=O)N1CCc2ccc(NC(=O)c3cn(C)nn3)cc2C1 | -4.27%
O=C(CC1CCCC1)NCCn1ccc(-c2ccncc2)n1 | 9.19%
O=C(NCCn1ccc(-c2ccccn2)n1)c1ccncc1 | 11.3%
Cn1nc(CNC(=O)c2nc3ccccc3s2)c2c1CCOC2 | 8.85%
Cn1nc(CNC(=O)C2CC2)cc1C1CC1 | 8.22%
Cn1cnnc1S(=O)(=O)C1CCN(S(=O)(=O)C2CC2)CC1 | -1.29%
O=S(=O)(Nc1cnn(C2CCOCC2)c1)c1c(F)cccc1F | -1.01%
O=C(CSC1CCc2ccccc2NC1=O)NCCO (centres undefined) | 2.81%
Cc1[nH]/c(=N\C(=O)c2csc(NCC(C)C)n2)sc1C | 5.69%
O=C(Cn1cc(-c2ccccc2)ncc1=O)Nc1nnc[nH]1 | -13.5%
O=C(Cn1c(=O)nc2n1C(=O)N(c1ccccc1)C2)Nc1ccccc1 | -7.97%
COCCNC(=O)c1sc(Nc2ccc(Cl)cn2)nc1C | -13.2%
COCc1c(C(=O)O)nnn1Cc1cccc(C(F)(F)F)c1 | -18.5%
O=C(Cn1cc(C(=O)O)ccc1=O)Nc1ccc(F)cc1Cl | -23.3%
Cc1ccc(C2C3=C(COC3=O)Nc3[nH]nc(C)c32)cc1C (centres undefined) | -3.38%
CC(C)CCN1CN=C(NS(=O)(=O)c2ccc(F)cc2)NC1 | -8.69%
Cc1c(C)n(Cc2ccncc2)c2nc3c(c(N)c12)CCCCC3 | 25.4%
CCOC(=O)C1CCN(C(=O)Cn2ccc3cc(Br)ccc32)CC1 | 24.7%
O=C(NCCN1CCCCC1)c1nc(-c2ccc3cc[nH]c3c2)no1 | -4.34%
Cn1c(=O)n(C)c2cc(C3SCC(=O)Nc4ccsc43)ccc21 (centres undefined) | 38.6%
CC(C)NC(=O)c1ccc2c(c1)nc1n2CCN(C(C)C)C1 | -13.4%

SMILES | cytotoxicity at 70.5 h
CC(C)c1cc2c(O)nc(CSCC(=O)O)nc2s1 | -14.7%
COc1ccc(-c2noc(C(=O)NCCN3CCCCC3)n2)cc1OC | 26.1%
CC(C)NC(=O)c1ccc2c(c1)nc1n2CCN(c2ccccc2)C1 | -11.7%
O=c1ccc(-c2cccs2)nn1CN1CCN(Cc2ccccc2)CC1 | -13.1%
O=C1CC(c2ccccc2F)c2c(n3ccsc3nc2=O)N1 (centres undefined) | -14%
CCOc1ccc(C2CC(=O)Nc3c2c(=O)nc2sccn32)cc1 (centres undefined) | -31.7%
COc1cc(CC(O)CO)c(OC)c2c1OCO2 (centres undefined) | 30.2%
COC(=O)CNC(=O)CSCc1nc(O)c2c(C)c(C)sc2n1 | -18.2%
CC1CCc2nc(O)c(C(=O)NCCN(C)C)cc2C1 (centres undefined) | -18.1%
O=C1CSC(c2ccsc2)c2sccc2N1 (centres undefined) | -18.3%
O=C(Cn1nc(-c2cccs2)ccc1=O)N1CCCCCC1 | -24.9%
Cc1ccc(C)c(-c2csc(N)c2C#N)c1 | -3.45%
O=c1[nH]c2c(c(=O)n1C1CCCCC1)CCC2Nc1ccccc1 (centres undefined) | 6.54%
CCCN1C(=O)CC(N2CCN(c3ccc(F)cc3)CC2)C1=O (centres undefined) | 7.23%
Cc1cc2nc(SCC(=O)N3CCCC3)n(C(C)C)c(=O)c2[nH]1 | 14.9%
CCc1ccc(-n2c(=O)[nH]c3nc(N4CCSCC4)ncc3c2=O)cc1 | -8.65%
COc1cccc(N2CCN(CC(O)c3cc(C)ccc3C)CC2)c1 (centres undefined) | 30.4%
CC(C)n1c(=O)nc2n1C(=O)N(c1ccccc1)C2 | -5.73%
CCn1nccc1CN(C)C(=O)Cn1nc(C)cc1C | 16.1%
CCC(=O)N1CCCCC1c1nc(N(C)C)ncc1-c1cc(C)no1 (centres undefined) | 1.06%
CN(C)C(=O)c1cccc(C2CNCCN2C)c1 (centres undefined) | -4.31%
CC(c1cc(O)nc(NC2CCCC2)n1)n1ncc2ccccc2c1=O (centres undefined) | -8.36%

SMILES | cytotoxicity at 70.5 h
COc1ccc(CNCC(C)Oc2ccccn2)cc1Br (centres undefined) | -18.5%
CN(C)C(=O)CN1CCC2(CC1)COc1ccccc1S(=O)(=O)N(C)C2 | 0.16%
O=C(NCc1cnc2n1CCN(Cc1nccs1)CC2)C1CCC1 | -2.78%
COCC1CN(Cc2ccc(C)s2)Cc2nnn(C)c21 (centres undefined) | 2.8%
Cc1ccc(CN2CCc3ncc(CNC(=O)C4CCC4)n3CC2)o1 | -2.7%
Cc1ccc(CN2Cc3nnn(C)c3C(COCC(=O)N(C)C)C2)s1 (centres undefined) | -8.72%
Cc1ccc(CN2Cc3nnn(C)c3C(COCC3CC3)C2)s1 (centres undefined) | 4.45%
Cc1csc(CN2C[C@@H]3COC[C@]3(COCC(=O)N(C)C)C2)n1 | -3.08%
CC(C)COC[C@H]1CC[C@H]2[C@H](CCN2C(=O)c2ccncc2F)O1 | -0.218%
CNC(=O)c1ccc2c(c1)C1(CCN(CC3CC3)CC1)C(=O)N2 | 1.88%
COCCN1CCC2(CC1)C(=O)Nc1ccc(C(=O)NC(C)C)cc12 | 1.35%
CNC(=O)CN1CC[C@H]2CN(C(=O)c3ccccc3C)C[C@H]2C1 | -3.61%
CC(C)CNC(=O)[C@H]1CCS(=O)(=O)[C@@H]2CN(Cc3ccc(F)cc3)C[C@H]12 | -10.2%
COc1ccc(CN2Cc3nnn(C)c3C(COCCN(C)C)C2)cc1 (centres undefined) | 4.07%
Cc1nc(CN2CC[C@H](OCC3CC3)[C@@H]2Cc2cccnc2)cs1 | -1.82%
Cc1noc(C)c1CN1C[C@@H]2CCCO[C@@H]2[C@H](Nc2ccccn2)C1 | -4.07%
O=C(CC1CC1)N1CC[C@@H]2[C@H](CC1)N(Cc1cccnc1)CCS2(=O)=O | 5.01%
c1cncc(C2COC3(CCN(Cc4ccsc4)CC3)C2)c1 (centres undefined) | -3.18%
CCS(=O)(=O)N1CC[C@@H]2[C@H](CC1)N(Cc1cccnc1)CCS2(=O)=O | -4.2%
CN(C)CCN1CCN(Cc2nccs2)Cc2cccnc21 | 2.78%
CN(C)CCN1CCN(Cc2cccs2)Cc2cccnc21 | -0.769%
